Results: patent US9783551B2, “Pyranochromenyl phenol derivative, and pharmaceutical composition for treating metabolic syndrome or inflammatory disease” (GLACEUM, INC., priority 2013, dated 2017)

Tested on: C2C12 cells
Assay: Glucose uptake (2-NBDG) in C2C12 cells
Assay type: cell-based
Conditions: compared with Rosiglytazone and Metformin
Experimental: In terms of capacity of glucose uptake in C2C12 cells, the compound (Compound 15) of Example 14 of the present invention was compared with the existing Rosiglytazone and Metformin which were used or are currently used as a therapeutic agent for diabetes. The C2C12 cell was cultured in a Dulbecco's modified eagle medium (DMEM) supplemented with 10% fetal bovine serum (FBS), penicillin (120 unit/mL), and streptomycin (75 μg/mL), the medium used for differentiation was a DMEM medium supplemented with 1% horse serum, and the C2C12 cell was cultured in the DMEM medium for 4 days. The cell thus cultured was treated with Compound 15 in a low-glucose, serum-free medium supplemented with 2-[N-(7-nitrobenz-2-oxa-1,3-diazol-4-yl)amino]-2-deoxy-d-glucose (2-NBDG) for 24 hours to measure the glucose absorbance at an excitation wavelength of 485 nm and an emission wavelength of 535 nm using a fluorescent detector. The same experiment was performed on Rosiglytazone and Metformin.

CCOc1ccc(C2COc3c(ccc4c3CCC(C)(C)O4)C2)c(O)c1 (stereo not shown) [Compound 15, 3-(2-hydroxy-4-ethoxyphenyl)-8,8-dimethyl-2,3,4,8,9,10-hexahydropyrano [2,3-f] chromene]
capacity of promoting glucose uptake, in words: better than that of the existing therapeutic agent for diabetes
